Experimental data reported in ChEMBL document CHEMBL1121833, “Structure--sweetness relationship of L-aspartyl dipeptide analogues. A receptor site topology” (J Med Chem, 1981).
Peptide text beside a SMILES is read from it.

Columns and labels:
Format in all cases: functional
[1] = Sweet potency as logarithm of sweet potency (log SP) relative to sucrose; Sweet
[2] = Sweet potency as logarithm of sweet potency (log SP) relative to sucrose; Bitter
[3] = Sweet potency as logarithm of sweet potency (log SP) relative to sucrose; No sweet
[4] = Sweet potency as logarithm of sweet potency (log SP) relative to sucrose; Tasteless
[5] = Sweet potency as logarithm of sweet potency (log SP) relative to sucrose

CCCCCCCNC(=O)[C@H](N)CC(=O)O
Log SP [1]: Sweet

C[C@@H](Cc1ccccc1)N(C)C(=O)[C@H](N)CC(=O)O
Log SP [2]: Bitter

C[C@@H](Cc1ccc(NS(C)(=O)=O)cc1)NC(=O)[C@H](N)CC(=O)O
Log SP [2]: Bitter

CC(C)C[C@H](NC(=O)[C@H](N)CC(=O)O)C(=O)OC(C)C
Log SP [3]: Not sweet

N[C@H](CC(=O)O)C(=O)NCCOc1ccccc1
Log SP [1]: Sweet

CCC[C@H](CC)NC(=O)[C@H](N)CC(=O)O
Log SP [2]: Bitter

CCC[C@@H](COC(=O)CC)NC(=O)[C@H](N)CC(=O)O
Log SP [3]: Not sweet

CC(=O)OC[C@H](CC(C)C)NC(=O)[C@H](N)CC(=O)O
Log SP [3]: Not sweet

COC(=O)C(CNC(=O)[C@H](N)CC(=O)O)C(=O)OC1CCCCC1 (stereo partly drawn)
Log SP [3]: Not sweet

CCCC[C@H](CC)NC(=O)[C@H](N)CC(=O)O
Log SP [1]: Sweet

C[C@@H](Cc1ccc2c(c1)OCO2)NC(=O)[C@H](N)CC(=O)O
Log SP [2]: Bitter

COC(=O)[C@@H](CCCCN)NC(=O)[C@H](N)CC(=O)O
Log SP [2]: Bitter

CCCCOC(=O)CCNC(=O)[C@H](N)CC(=O)O
Log SP [3]: Not sweet

N[C@H](CC(=O)O)C(=O)N[C@@H](CO)Cc1ccc(O)cc1
Log SP [1]: Sweet

C[C@@H](Cc1cc2ccccc2[nH]1)NC(=O)[C@H](N)CC(=O)O
Log SP [2]: Bitter

COC(=O)C(CNC(=O)[C@H](N)CC(=O)O)Cc1ccccc1 (stereo partly drawn)
Log SP [3]: Not sweet

COC(=O)[C@@H](CC(C)C)NC(=O)[C@H](N)CC(=O)O
Log SP [3]: Not sweet

N[C@H](CC(=O)O)C(=O)NCCc1ccccc1
Log SP [4]: Tasteless

COC(=O)C(CNC(=O)[C@H](N)CC(=O)O)C(=O)OC
Log SP [3]: Not sweet

CC(=O)OC[C@H](Cc1ccccc1)NC(=O)[C@H](N)CC(=O)O
Log SP [3]: Not sweet

CC[C@@H](COC(=O)C1CCCCC1)NC(=O)[C@H](N)CC(=O)O
Log SP [3]: Not sweet

COC(=O)C(CNC(=O)[C@H](N)CC(=O)O)C(=O)OC1CCCC1 (stereo partly drawn)
Log SP [3]: Not sweet

COC(=O)[C@@H](CC(=O)OC1CCCCC1)NC(=O)[C@H](N)CC(=O)O
Log SP [3]: Not sweet

CCC[C@H](C)NC(=O)[C@H](N)CC(=O)O
Log SP [4]: Tasteless

C[C@@H](CC1CCCCC1)N(C)C(=O)[C@H](N)CC(=O)O
Log SP [2]: Bitter

COC(=O)[C@@H](COC(=O)c1ccccc1)NC(=O)[C@H](N)CC(=O)O
Log SP [3]: Not sweet

CC[C@@H](CC(=O)OC1CCCCC1)NC(=O)[C@H](N)CC(=O)O
Log SP [3]: Not sweet

C[C@H](CC1CCCCC1)N(C)C(=O)[C@H](N)CC(=O)O
Log SP [2]: Bitter

C[C@@H](Cc1ccc(O)cc1)NC(=O)[C@H](N)CC(=O)O
Log SP [1]: Sweet

CCC(C)[C@@H](COC(C)=O)NC(=O)[C@H](N)CC(=O)O (stereo partly drawn)
Log SP [3]: Not sweet

COC(=O)C(NC(=O)[C@@H](N)CC(=O)O)C(=O)OC1CC(C)CCC1C(C)C (stereo partly drawn)
Log SP [3]: Not sweet

CCCCCCNC(=O)[C@H](N)CC(=O)O
Log SP [1]: Sweet

CCCCC(=O)OC[C@H](CC)NC(=O)[C@H](N)CC(=O)O
Log SP [3]: Not sweet

C[C@@H](COC(=O)c1ccccc1)NC(=O)[C@H](N)CC(=O)O
Log SP [3]: Not sweet

N[C@H](CC(=O)O)C(=O)NCCc1ccco1
Log SP [1]: Sweet

CC(CNC(=O)[C@H](N)CC(=O)O)c1ccccc1 (stereo partly drawn)
Log SP [2]: Bitter

CC(C)CCCNC(=O)[C@H](N)CC(=O)O
Log SP [4]: Tasteless

C[C@@H](COC(=O)C1CCCC(C)(C)C1)NC(=O)[C@H](N)CC(=O)O (stereo partly drawn)
Log SP [3]: Not sweet

C[C@H](Cc1ccccc1)N(C)C(=O)[C@H](N)CC(=O)O
Log SP [2]: Bitter

CC[C@@H](CC(=O)OC(C)C)NC(=O)[C@H](N)CC(=O)O
Log SP [3]: Not sweet

N[C@H](CC(=O)O)C(=O)NCCc1ccc(O)cc1
Log SP [1]: Sweet

N[C@H](CC(=O)O)C(=O)N[C@@H](CO)Cc1ccccc1
Log SP [1]: Sweet

CC1CCCCC1OC(=O)CCNC(=O)[C@H](N)CC(=O)O (stereo partly drawn)
Log SP [3]: Not sweet

C[C@H](NC(=O)[C@H](N)CC(=O)O)C(O)c1ccccc1 (stereo partly drawn)
Log SP [1]: Sweet

CCOC(=O)C[C@H](Cc1ccccc1)NC(=O)[C@H](N)CC(=O)O
Log SP [3]: Not sweet

CCC(C)C[C@H](C)NC(=O)[C@H](N)CC(=O)O (stereo partly drawn)
Log SP [1]: Sweet

C[C@@H](CC(=O)OC1CCCCC1)NC(=O)[C@H](N)CC(=O)O
Log SP [5]: 0.64

COC(=O)[C@@H](COC(C)=O)NC(=O)[C@H](N)CC(=O)O
Log SP [5]: 0.91

COC(=O)[C@@H](CCCNC(C)=O)NC(=O)[C@H](N)CC(=O)O
Log SP [5]: 0.25

C[C@@H](Cc1ccc(F)cc1)NC(=O)[C@H](N)CC(=O)O
Log SP [5]: 1.5

CC(C)OC(=O)[C@H](NC(=O)[C@@H](N)CC(=O)O)[C@H](C)O
Log SP [5]: 0.91

CC(C)OC(=O)[C@H](CO)NC(=O)[C@H](N)CC(=O)O
Log SP [5]: 1.96

C[C@@H](CC(=O)OC(C)(C)C)NC(=O)[C@H](N)CC(=O)O
Log SP [5]: 0.68

COC[C@@H](COC(C)=O)NC(=O)[C@H](N)CC(=O)O
Log SP [5]: 0.48

CC[C@@H](COC(=O)C1CCC1)NC(=O)[C@H](N)CC(=O)O
Log SP [5]: 1.4

COC(=O)[C@@H](CC1CCCCC1)NC(=O)[C@H](N)CC(=O)O
Log SP [5]: 2.3

C[C@@H](CCc1ccccc1)NC(=O)[C@H](N)CC(=O)O
Log SP [5]: 0.89

CCCC(C)OC(=O)CCNC(=O)[C@H](N)CC(=O)O (stereo partly drawn)
Log SP [5]: 0.68

CCC(=O)OC[C@H](COC)NC(=O)[C@H](N)CC(=O)O
Log SP [5]: 1.21

COC(=O)[C@H](NC(=O)[C@H](N)CC(=O)O)C(=O)OC1CCCCC1
Log SP [5]: 3.14

CCOC(=O)[C@H](NC(=O)[C@H](N)CC(=O)O)C(=O)OC(C)(C)C
Log SP [5]: 2.32 | Log SP [1]: Sweet

CCCCOC(=O)[C@H](CO)NC(=O)[C@H](N)CC(=O)O
Log SP [5]: 1.75

COC(=O)[C@@H](CCCCNC(C)=O)NC(=O)[C@H](N)CC(=O)O
Log SP [5]: 0.27

CCCCOC(=O)[C@H](C)NC(=O)[C@H](N)CC(=O)O
Log SP [5]: 0.9

CCOC(=O)C[C@H](C)NC(=O)[C@H](N)CC(=O)O (stereo in doubt; 133)
Log SP [5]: 0.88

COC(=O)CCCNC(=O)[C@H](N)CC(=O)O
Log SP [5]: 0.13

CC(=O)OC[C@H](CO)NC(=O)[C@H](N)CC(=O)O
Log SP [5]: 1.23

CCC[C@H](NC(=O)[C@H](N)CC(=O)O)C(=O)OC(C)C
Log SP [5]: 1.43

CCCOC(=O)[C@H](CO)NC(=O)[C@H](N)CC(=O)O
Log SP [5]: 2.39

CC(C)C[C@H](C)NC(=O)[C@H](N)CC(=O)O
Log SP [2]: Bitter

COC(=O)[C@H](NC(=O)[C@@H](N)CC(=O)O)[C@@H](C)O
Log SP [5]: 0.71

CC[C@H](C)[C@H](NC(=O)[C@@H](N)CC(=O)O)C(=O)OC (H-Asp-Ile-OMe)
Log SP [3]: Not sweet

CCSC[C@@H](NC(=O)[C@H](N)CC(=O)O)C(=O)OC
Log SP [5]: 1.6

C[C@@H](COC(=O)C1CCCCC1)NC(=O)[C@H](N)CC(=O)O
Log SP [3]: Not sweet

CC(=O)OC[C@H](C)NC(=O)[C@H](N)CC(=O)O
Log SP [5]: 1.61

CC(C)C(=O)OCCNC(=O)[C@H](N)CC(=O)O
Log SP [5]: 1.16

CCC(CC)C(=O)OC[C@H](C)NC(=O)[C@H](N)CC(=O)O
Log SP [5]: 1.53
